Test results from US9326972B2, “Use of phenylmethimazoles, methimazole derivatives, and tautomeric cyclic thiones for the treatment of autoimmune/inflammatory diseases associated with toll-like receptor overexpression” (Ohio University, priority 2004, dated 2016).

Tests used:
[1] = test system: TLR3; assay: TLR3 mRNA in NPA human thyrocytes (Northern); assay type: cell-based; conditions: 0.5 mM C10
Experimental: In order to confirm the presence and functionality of TLR3 in human thyrocytes, we evaluated TLR3 expression in cultured NPA human thyrocytes. NPA thyrocytes are from a papillary carcinoma but are known to retain functional properties of normal thyrocytes. Transfection with dsRNA [Poly (I:C)], but not transfection by dsDNA or incubation with Poly (I:C), was able to increase TLR3 mRNA levels in Northern blots. The dsRNA, but not the dsDNA transfection, could also increase IFN-β mRNA levels, measured as before with PCR. Additionally, as was the case for FRTL-5 cells and dsRNA transfection, IFN-β increased PKR mRNA levels as well as TLR3 RNA levels.
NPA-87 cells are a continuous line of human thyrocytes derived from papillary carcinoma cells. They retain several functional responses including TSH-increased cAMP signaling (J. Xu, et al., J Clin Endocrinol Metab, 88:4990-6 (2003)). They were kindly provided by Dr. Guy Julliard (University of California, Los Angeles, Calif.) and grown in RPMI 1640 medium supplemented with 2 g/liter sodium bicarbonate, 0.14 mM nonessential amino acids, 1.4 mM sodium pyruvate, and 10% fetal bovine serum, pH 7.2.
RNA Isolation and Northern Analysis.

[2] = test system: horses; assay: Horses operated to remove necrotic bowel; assay type: in vivo, horse; conditions: 2 mg/kg C10 pre-op and post-op for three days, plus antibiotics
Experimental: Effect of Phenylmethimazole (C10) on horses subjected to operative procedures to repair necrotic bowels: A group of animals were also subjected to an operative procedure that clamped vessels in a small portion of bowel. Within 2 days, bowel necrosis and peritonitis ensued. At that point animals were re-operated to remove the necrotic bowel and treated with 2 mg/kg C10 or DMSO alone pre-op and post-op for three days. […] Both groups had the same antibiotic therapy as used above.

[3] = test system: horses; assay: Peritonitis and endotoxic shock in horses induced by intraperitoneal caecal fluid; assay type: in vivo, horse
[4] = test system: ICAM-1 and VCAM-1; assay: Histology and ICAM-1/VCAM-1 immunohistochemistry in organs of LPS-treated mice; assay type: in vivo, mouse
Experimental: Histology: Tissue from liver, lung, kidney and heart from normal, LPS and LPS plus C-10 treated mice (experiment in Table 5), were fixed in 4%-PBS-formalin overnight. They then were dehydrated serially in alcohols 50%-70%-90%-100%, clarified in chloroform, and embedded in paraffin. Five (5) sections were obtained and mounted on Vectabond™ (Vector Laboratories, Inc. Burlingame, Calif.) pretreated slides. The sections were incubated twice (10 minutes each) in xylol and re-hydrated by serial alcohol treatments, 100%-90-70-50, followed by distilled water. Tissues were stained with Hematoxylin-Eosin using standard protocols, mounted, and observed by optical microscopy in a double blind manner.
Immunohistochemistry (IHC): C10 (pMMI) effects on the over-expression of adhesion molecules induced by LPS were studied in different organs. […] At 18 h after LPS injection, mice were sacrificed and the heart, lung, liver spleen and kidney were removed and fixed in 4% formalin in PBS. The tissue was then dehydrated in serial alcohols (50% v/v, twice; 70% v/v, twice; 80% v/v, twice; 95% v/v, twice; and 100% v/v, twice), cleared in pure chloroform, embedded in paraffin and sectioned ([…] thickness) and mounted on Vectabond™ (Vector Laboratories, Inc. Burlingame, Calif.) pre-treated slides. […]

[5] = test system: mice; conditions: mouse, in vivo; cited from earlier work
[6] = test system: TLR3; assay: Inhibition of IFN-β- or dsRNA transfection-increased TLR3, PKR, MHC class I RNA in FRTL-5 thyrocytes (Northern/PCR); assay type: cell-based, rat; conditions: for % TLR3 Inhibition vs Control: 3 replicates
Experimental: FIG. 4. Phenylmethimazole (C10) and Methimazole (MMI) inhibit the ability of IFN-β to increase TLR3, PKR, and MHC class I RNA levels in FRTL-5 thyrocytes. Cells were incubated with or without 100 U/ml of IFN-β for 3 hours in the presence of dimethyl sulfoxide (DMSO), C10, or MMI. DMSO is the vehicle control. Northern blots were performed with 20 ug of total RNA to detect TLR 3, PKR, MHC I, and GAPDH using radiolabeled cDNA probes. Data are representative of multiple experiments. As was the case for Poly (I:C) transfection in FIG. 2B, IFN-β increased TLR3.
We evaluated the ability of C10 and MMI to inhibit TLR3 expression and signaling. C10 prevented the ability of dsRNA transfection and incubation with IFN-β to increase TLR3RNA levels in FRTL-5 cells, as measured by PCR (FIG. 4A). […] DMSO is the vehicle for C10 because of the hydrophobicity of C10; it had no significant effect on basal activity and was used as the control value in all experiments described herein.
The C-10 and MMI reduced the ability of IFN-β to increase PKR and MHC class I RNA levels, albeit relatively less than TLR3 (FIG. 4B). […] We questioned the C10 mechanism of action.
RNA Isolation and Northern Analysis. […] .
RT-PCR. DNA was removed from total RNA using the DNA-free Kit (Ambion) according to the manufacturer's instructions. One μg of RNA was used to synthesize cDNA using the Advantage RT-for-PCR Kit (BD Biosciences) according to the manufacturer's protocol. Fifty ng of cDNA was subsequently used for PCR of TLR-3, and β-Actin; 250 ng of cDNA was used for PCR of IFN-β. The primers used for amplification of human TLR-3 and β-Actin have been previously described (K. U. Saikh, et al., Clin Diagn Lab Immunol, 10:1065-73 (2003)).

## Cn1c(-c2ccccc2)cnc1S [Compound C10, 5-Phenylmethimazole]
[1]
  dsRNA transfection- or IFN-β-increased TLR3 mRNA levels: decreased
[2]
  recovery after operation to remove necrotic bowel: full recovery in all cases
[3]; 10 animals so treated
  effectiveness of treatment: 100%
[3]; C10 2 mg/kg intravenous bolus at 12 hours
  time to disappearance of signs of collapse or depression after the C-10 bolus: ≤ 15 min
[3]; endotoxemia and shock due to septic peritonitis, intraperitoneal inoculation of intestinal flora
  survival rate: 100%
[4]; H&E, 18 hours
  microcirculatory damage and inflammatory cellular infiltration in lung: ameliorated
[4]; immunohistochemistry
  ICAM-1 and VCAM-1 over-expression on endothelial cells (lung, liver): suppressed
[5]
  inflammatory response and survival in DSS induced colitis: suppress the inflammatory response and improve survival
[6]; C10 stored in aqueous cyclodextrin preparation for 6 weeks prior to use
  decrease of TLR3 and IFN-β-mRNA levels in thyrocytes vs solutions with DMSO: equally effective
[6]; FRTL-5, 100 U/ml IFN-β 3 hours
  IFN-β increased MHC class I and PKR mRNA levels: significantly decreased
[6]; FRTL-5, 100 U/ml IFN-β 3 hours, C10 0.5 mM, MMI 5 mM
  IFN-β-increased TLR3 RNA levels: totally prevented
[6]; FRTL-5, 100 U/ml IFN-β 3 hours, listed as C-10
  IFN-β increased MHC class I and PKR mRNA levels: reduced
[6]; FRTL-5, no IFN-β
  basal level of TLR 3 mRNA: slightly reduced
[6]; IFN-β increased TLR3 RNA, C10 0.1 mM in Excip.
  % TLR3 Inhibition vs Control: 90%
[6]; dsRNA increased TLR3 RNA, C10 0.1 mM in DMSO
  % TLR3 Inhibition vs Control: 90%
